Measurements published in ChEMBL document CHEMBL1137289, “Structure-activity relationships of novel antibacterial translation inhibitors: 3,5-diamino-piperidinyl triazines” (Bioorg Med Chem Lett, 2006).
≈ marks a conversion by molar mass, not a printed value.

Key:
[1] = test system: Escherichia coli; assay: Inhibition of protein synthesis in Escherichia coli S30 extracts by coupled transcription-translation assay; format: functional
[2] = test system: Escherichia coli; assay: microbe, parasite or virus in culture; details: ATCC 25922
Description: Antibacterial activity against Escherichia coli ATCC 25922

[3] = test system: Escherichia coli; assay: Antibacterial activity against wild type impermeable Escherichia coli LMG194; format: functional
[4] = test system: Staphylococcus aureus; assay: microbe, parasite or virus in culture; details: ATCC 25923
Description: Antibacterial activity against Staphylococcus aureus ATCC 25923

[5] = test system: Pseudomonas aeruginosa; assay: Antibacterial activity against Pseudomonas aeruginosa ATCC 27853; format: functional
[6] = (§1) Cytotoxicity against CEM T cells after 72 hrs by proliferation assay; format: cell-based, CCRF-CEM; details: human, CCRF-CEM (CEM) T cells
[7] = test system: Escherichia coli; assay: Antibacterial activity against isogenic permeable mutant Escherichia coli LMG194; format: functional
[8] = test system: CCRF-CEM; assay: as §1; format: cell-based; details: human, ccrf-cem, 72 h

Compound | IC50 ([1]; Escherichia coli) [µM] | MIC [2] [µg/mL] | MIC [4] [µg/mL] | other results
N[C@@H]1C[C@H](N)CN(c2nc(Nc3ccc(S(N)(=O)=O)cc3)nc(N3C[C@H](N)C[C@H](N)C3)n2)C1 | 4 | > 64 | > 64 | MIC [3]: > 64 µg/mL
Cc1cc(C)cc(Nc2nc(N3C[C@H](N)C[C@H](N)C3)nc(N3C[C@H](N)C[C@H](N)C3)n2)c1 | 13 | 64 (≈ 150 µM) | 32 (≈ 75 µM) | MIC [3]: > 64 µg/mL
N[C@@H]1C[C@H](N)CN(c2nc(Nc3ccc(C(=O)CC(=O)Nc4ccc(F)c(F)c4)cc3)nc(N3C[C@H](N)C[C@H](N)C3)n2)C1 | 9 | 4 (≈ 6.72 µM) | 16 (≈ 26.9 µM) | MIC [5]: 1 µg/mL (≈ 1.68 µM); CC50 at 72 h [6]: 179 µM
N[C@@H]1C[C@H](N)CN(c2nc(Nc3ccc(C(=O)CC(=O)Nc4ccc(-c5ccccc5)cc4)cc3)nc(N3C[C@H](N)C[C@H](N)C3)n2)C1 | 6 | 4 (≈ 6.29 µM) | 16 (≈ 25.2 µM) | MIC [5]: ≤ 1 µg/mL; CC50 at 72 h [6]: 24 µM
N[C@@H]1C[C@H](N)CN(c2nc(Nc3ccc(C(=O)Nc4ccc5[nH]cnc5c4)c(O)c3)nc(N3C[C@H](N)C[C@H](N)C3)n2)C1 | 4 | 8 (≈ 13.9 µM) | – | –
N[C@@H]1C[C@H](N)CN(c2nc(Nc3ccc(C(=O)CC(=O)Nc4ccc5c(c4)OC(F)(F)O5)cc3)nc(N3C[C@H](N)C[C@H](N)C3)n2)C1 | 6 | 4 (≈ 6.25 µM) | 8 (≈ 12.5 µM) | MIC [5]: 1 µg/mL (≈ 1.56 µM); CC50 at 72 h [6]: 146 µM
N[C@@H]1C[C@H](N)CN(c2nc(Nc3ccc(Br)cc3)nc(N3C[C@H](N)C[C@H](N)C3)n2)C1 | 4 | > 64 | > 64 | MIC [3]: > 64 µg/mL; MIC [7]: 4 µg/mL (≈ 8.38 µM)
N[C@@H]1C[C@H](N)CN(c2nc(Nc3ccc([N+](=O)[O-])cc3)nc(N3C[C@H](N)C[C@H](N)C3)n2)C1 | 4 | 32 (≈ 72.2 µM) | 32 (≈ 72.2 µM) | MIC [3]: 32 µg/mL (≈ 72.2 µM); MIC [7]: 4 µg/mL (≈ 9.02 µM)
N[C@@H]1C[C@H](N)CN(c2nc(Nc3ccccc3F)nc(N3C[C@H](N)C[C@H](N)C3)n2)C1 | 5 | > 64 | > 64 | MIC [3]: > 64 µg/mL
CN(C)c1ccc(Nc2nc(N3C[C@H](N)C[C@H](N)C3)nc(N3C[C@H](N)C[C@H](N)C3)n2)cc1 | 11 | > 64 | > 64 | MIC [3]: > 64 µg/mL
N[C@@H]1C[C@H](N)CN(c2nc(Nc3ccc4c(c3)CCC4)nc(N3C[C@H](N)C[C@H](N)C3)n2)C1 | 15 | > 64 | 32 (≈ 73 µM) | MIC [3]: 64 µg/mL (≈ 146 µM); MIC [7]: 8 µg/mL (≈ 18.2 µM)
COc1ccc(Nc2nc(N3C[C@H](N)C[C@H](N)C3)nc(N3C[C@H](N)C[C@H](N)C3)n2)cc1 | 14 | > 64 | > 64 | MIC [3]: > 64 µg/mL
N[C@@H]1C[C@H](N)CN(c2nc(Nc3ccc(C(=O)CC(=O)Nc4cccc(Br)c4)cc3)nc(N3C[C@H](N)C[C@H](N)C3)n2)C1 | 5 | 2 (≈ 3.13 µM) | 16 (≈ 25.1 µM) | MIC [5]: ≤ 1 µg/mL; CC50 at 72 h [6]: 124 µM
N[C@@H]1C[C@H](N)CN(c2nc(Nc3ccc(NC(=O)c4ccc5ccccc5c4O)cc3)nc(N3C[C@H](N)C[C@H](N)C3)n2)C1 | 10 | 1 (≈ 1.71 µM) | 2 (≈ 3.43 µM) | MIC [5]: 1 µg/mL (≈ 1.71 µM); CC50 at 72 h [6]: 140 µM
N[C@@H]1C[C@H](N)CN(c2nc(Nc3ccc(F)cc3)nc(N3C[C@H](N)C[C@H](N)C3)n2)C1 | 3 | 64 (≈ 154 µM) | 16 (≈ 38.4 µM) | MIC [3]: 32 µg/mL (≈ 76.8 µM); MIC [7]: 4 µg/mL (≈ 9.6 µM)
N[C@@H]1C[C@H](N)CN(c2nc(Nc3ccc(C(=O)Nc4ccc(Cl)c(Cl)c4)c(O)c3)nc(N3C[C@H](N)C[C@H](N)C3)n2)C1 | 10 | 2 (≈ 3.32 µM) | – | –
N[C@@H]1C[C@H](N)CN(c2nc(Nc3cccc(C(F)(F)F)c3)nc(N3C[C@H](N)C[C@H](N)C3)n2)C1 | 5 | 32 (≈ 68.6 µM) | 16 (≈ 34.3 µM) | MIC [3]: 32 µg/mL (≈ 68.6 µM); MIC [7]: 4 µg/mL (≈ 8.57 µM)
N[C@@H]1C[C@H](N)CN(c2nc(Nc3ccc(O)cc3)nc(N3C[C@H](N)C[C@H](N)C3)n2)C1 | 11 | > 64 | > 64 | MIC [3]: > 64 µg/mL
N[C@@H]1C[C@H](N)CN(c2nc(Nc3ccc(C(=O)CC(=O)Nc4ccccc4Cl)cc3)nc(N3C[C@H](N)C[C@H](N)C3)n2)C1 | 4 | 4 (≈ 6.73 µM) | 16 (≈ 26.9 µM) | MIC [5]: ≤ 1 µg/mL; CC50 at 72 h [6]: 71 µM
Cc1ccc(S(=O)(=O)N(Cc2ccccc2)c2ccc(Nc3nc(N4C[C@H](N)C[C@H](N)C4)nc(N4C[C@H](N)C[C@H](N)C4)n3)cc2O)cc1 | 4 | 4 (≈ 5.94 µM) | 16 (≈ 23.7 µM) | MIC [5]: 16 µg/mL (≈ 23.7 µM); CC50 at 72 h [6]: 68 µM
N[C@@H]1C[C@H](N)CN(c2nc(Nc3ccccc3)nc(N3C[C@H](N)C[C@H](N)C3)n2)C1 | 7 | > 64 | > 64 | MIC [3]: > 64 µg/mL
N[C@@H]1C[C@H](N)CN(c2nc(Nc3ccc(NC(=O)C(=O)c4c[nH]c5ccccc45)c(O)c3)nc(N3C[C@H](N)C[C@H](N)C3)n2)C1 | 4 | 1 (≈ 1.66 µM) | 16 (≈ 26.6 µM) | MIC [5]: ≤ 0.5 µg/mL; CC50 at 72 h [6]: 92 µM
O=C(N[C@H](CO)[C@H](O)c1ccc([N+](=O)[O-])cc1)C(Cl)Cl [CHLORAMPHENICOL] | 1.5 | 4 (≈ 12.4 µM) | 8 (≈ 24.8 µM) | MIC [5]: > 64 µg/mL
NC[C@H]1O[C@H](O[C@H]2[C@H](O)[C@@H](O[C@H]3O[C@H](CO)[C@@H](O)[C@H](N)[C@H]3O)[C@H](N)C[C@@H]2N)[C@H](O)[C@@H](O)[C@@H]1O [KANAMYCIN] | 0.4 | – | – | –
CN(C)[C@@H]1C(O)=C(C(N)=O)C(=O)[C@@]2(O)C(O)=C3C(=O)c4c(O)cccc4[C@@](C)(O)[C@H]3C[C@@H]12 [TETRACYCLINE] | 2.8 | – | – | –
GENTAMICIN | – | – | – | IC50 [1]: 0.03 µM; CC50 [8]: > 300 µM

The next lines start with results.

IC50 ([1]; Escherichia coli) [µM] | MIC [2] [µg/mL] | Compound | MIC [4] [µg/mL] | other results
4 | 8 (≈ 14.6 µM) | N[C@@H]1C[C@H](N)CN(c2nc(Nc3cccc(NC(=O)c4cccc(O)c4O)c3)nc(N3C[C@H](N)C[C@H](N)C3)n2)C1 | – | –
7 | 2 (≈ 3.52 µM) | N[C@@H]1C[C@H](N)CN(c2nc(Nc3ccc(NC(=O)c4ccc(Cl)cc4)c(O)c3)nc(N3C[C@H](N)C[C@H](N)C3)n2)C1 | 16 (≈ 28.2 µM) | MIC [5]: ≤ 0.5 µg/mL; CC50 at 72 h [6]: 180 µM
9 | 2 (≈ 3.13 µM) | N[C@@H]1C[C@H](N)CN(c2nc(Nc3ccc(C(=O)N4CCc5cc(Br)ccc54)c(O)c3)nc(N3C[C@H](N)C[C@H](N)C3)n2)C1 | – | –
14 | 64 (≈ 146 µM) | N[C@@H]1C[C@H](N)CN(c2nc(Nc3ccc4[nH]cnc4c3)nc(N3C[C@H](N)C[C@H](N)C3)n2)C1 | – | –
36 | – | N[C@@H]1C[C@H](N)CN(c2nc(NC3CCNC3)nc(N3C[C@H](N)C[C@H](N)C3)n2)C1 (stereo not given in full) | – | –
32 | – | N[C@@H]1C[C@H](N)CN(c2nc(Nc3ccncc3)nc(N3C[C@H](N)C[C@H](N)C3)n2)C1 | – | –
10 | 2 (≈ 3.66 µM) | Cc1ccc2nc(-c3ccc(Nc4nc(N5C[C@H](N)C[C@H](N)C5)nc(N5C[C@H](N)C[C@H](N)C5)n4)cc3)sc2c1 | 2 (≈ 3.66 µM) | CC50 at 72 h [6]: 33 µM
5 | 16 (≈ 31.8 µM) | N[C@@H]1C[C@H](N)CN(c2nc(N3C[C@H](N)C[C@H](N)C3)nc(N3CCc4cc(Br)ccc43)n2)C1 | – | –
45 | – | N[C@@H]1C[C@H](N)CN(c2nc(NO)nc(N3C[C@H](N)C[C@H](N)C3)n2)C1 | – | –
92 | – | Nc1nc(N2C[C@H](N)C[C@H](N)C2)nc(N2C[C@H](N)C[C@H](N)C2)n1 | – | –
7 | 32 (≈ 68.5 µM) | N[C@@H]1C[C@H](N)CN(c2nc(Nc3ccc(Cl)c(Cl)c3)nc(N3C[C@H](N)C[C@H](N)C3)n2)C1 | – | –
23 | – | N[C@@H]1C[C@H](N)CN(c2nc(N3CCNCC3)nc(N3C[C@H](N)C[C@H](N)C3)n2)C1 | – | –
9 | 16 (≈ 33.7 µM) | N[C@@H]1C[C@H](N)CN(c2nc(Nc3ccc(-c4ccccc4)cc3)nc(N3C[C@H](N)C[C@H](N)C3)n2)C1 | – | –
180 | – | CCN(CC)c1nc(N2C[C@H](N)C[C@H](N)C2)nc(N2C[C@H](N)C[C@H](N)C2)n1 | – | –
8 | – | Nc1ccc(Nc2nc(N3C[C@H](N)C[C@H](N)C3)nc(N3C[C@H](N)C[C@H](N)C3)n2)cc1 | – | –
290 | – | CN(C)c1nc(N2C[C@H](N)C[C@H](N)C2)nc(N2C[C@H](N)C[C@H](N)C2)n1 | – | –
63 | – | N[C@@H]1C[C@H](N)CN(c2nc(NC3CCCCC3)nc(N3C[C@H](N)C[C@H](N)C3)n2)C1 | – | –
62 | – | CNc1nc(N2C[C@H](N)C[C@H](N)C2)nc(N2C[C@H](N)C[C@H](N)C2)n1 | – | –
9 | – | N[C@@H]1C[C@H](N)CN(c2nc(Nc3ccon3)nc(N3C[C@H](N)C[C@H](N)C3)n2)C1 | – | –
8 | 4 (≈ 6.69 µM) | COc1cc(Nc2nc(N3C[C@H](N)C[C@H](N)C3)nc(N3C[C@H](N)C[C@H](N)C3)n2)ccc1NC(=O)c1ccc(Cl)cc1O | – | –
30 | > 64 | COc1cccc(Nc2nc(N3C[C@H](N)C[C@H](N)C3)nc(N3C[C@H](N)C[C@H](N)C3)n2)c1NC(=O)c1ccc(Cl)cc1O | – | –
170 | – | NNc1nc(N2C[C@H](N)C[C@H](N)C2)nc(N2C[C@H](N)C[C@H](N)C2)n1 | – | –
5 | 8 (≈ 14.6 µM) | N[C@@H]1C[C@H](N)CN(c2nc(Nc3ccc(NC(=O)c4cccc(O)c4O)cc3)nc(N3C[C@H](N)C[C@H](N)C3)n2)C1 | – | –
42 | – | N[C@@H]1C[C@H](N)CN(c2nc(Cl)nc(N3C[C@H](N)C[C@H](N)C3)n2)C1 | – | –
